Experimental data: patent US4591599A, “Perfluoropyrrolizines and emulsions thereof useful as blood substitutes” (The Green Cross Corporation, priority 1984, dated 1986)

Tests used:
Wister-strain male rats = experiment: Acute toxicity test; assay type: in vivo; conditions: 100 ml/kg-body weight, intravenous, observed for one week
Description: The acute toxicity test on the preparations of the present invention was carried out using the preparations of the present invention shown in Table 4 which had been physiologically isotonized. The test animals used were Wister-strain male rats (weighing 100-120 g).

[1] = Distribution of perfluoro-compound in organs (gas chromatography); assay type: in vivo, Wister-strain male rats; conditions: 4 g/kg, tail vein, rats

| SMILES | death cases (Wister-strain male rats) | adverse influence on the liver or spleen organ ([1]; 3 months) | uptake by and disappearance from the reticulo-endothelial organs ([1]; 3 months) | Residual Rate of perfluorobicyclo compound ([1]; Liver, 1 week after administration) | Residual Rate of perfluorobicyclo compound ([1]; Liver, 2 weeks after administration) | Residual Rate of perfluorobicyclo compound ([1]; Liver, 3 months after administration) | Residual Rate of perfluorobicyclo compound ([1]; Liver, 4 weeks after administration) | Residual Rate of perfluorobicyclo compound ([1]; Spleen, 1 week after administration) | Residual Rate of perfluorobicyclo compound ([1]; Spleen, 2 weeks after administration) | Residual Rate of perfluorobicyclo compound ([1]; Spleen, 3 months after administration) | Residual Rate of perfluorobicyclo compound ([1]; Spleen, 4 weeks after administration) |
| --- | --- | --- | --- | --- | --- | --- | --- | --- | --- | --- | --- |
| FC(F)(F)C(F)(F)C1(F)N2C(F)(F)C(F)(F)C(F)(F)C(F)(F)C2(F)C(F)(F)C(F)(F)C1(F)F (stereo not drawn) [Example 101, perfluoro-4-ethyloctahydroquinolidine] | no death case | – | – | – | – | – | – | – | – | – | – |
| FC(F)(F)C1(F)N2C(F)(F)C(F)(F)C(F)(F)C(F)(F)C2(F)C(F)(F)C(F)(F)C1(F)F (stereo not drawn) [Example 1, perfluoro-4-methyloctahydroquinolidine] | no death case | no evidence of adverse influence on the liver or spleen organ | taken up in greater amounts by the reticulo-endothelial organs shortly after the administration, but soon disappeared rapidly | 19.92% | 8.66% | 0.30% | 1.88% | 11.61% | 9.33% | 0.09% | 2.45% |
